One series is described as follows: solubility. It is filed as physicochemical.
The subject of a further series is Pseudomonas solanacearum. It is filed as in vivo. Conditions: 0 no control, 4 complete control.
The subject of series [1] is Ascaris lumbricoides var. suum. Nature of the series: medicated feed, mice infected with Ascaris ova, lung lesions. It is filed as in vivo. To be noted: Example 13, mice, 0.05 percent in diet; control 2.66. An excerpt: The feeds were utilized as diets for separate groups of mice, five mice per group. Above twelve hours after initiation of the feeding, the mice were infected with Ascaris lumbricoides var. suum ova. Another group of five mice were fed the non-medicated feed to serve as a control but was similarly infected at the same time with Ascaris lumbricoides var. suum. All groups were fed their respective feed and maintained under normal laboratory conditions for a period of eight days, at which time all mice were taken off feed. On the ninth day, all mice were sacrificed and the lungs examined to determine the presence, and if present, numbers, of lesions of Ascaris lumbricoides var. suum.
Another evaluation was conducted under the procedures reported in Example 11, except that the rates were varied. The results were as follows:
In a further evaluation, the monoammonium salts of A16886I and A16886II were separately evaluated for the control of Ascaris lumbricoides var. suum. The evaluations were conducted in accordance with the procedure reported in Example 11 at a concentration in the diet of 0.05 percent.

For a further series, the system named is Xanthomonas vesicatoria. Nature of the series: field trial, bacterial spot control on tomato plants. It is filed as in vivo. The method, then: (§1) A mixture of the monoammonium salt of A16886I and the monoammonium salt of A16886II was tested under field conditions for the control of Xanthomonas vesicatoria (bacterial spot) on mature bearing tomato plants. The mixture of the two salts was dispersed in water at a concentration of 100, 200, or 400 parts per million and applied to the plants at the rate of 75 gallons per acre. Application was made with a CO2 sprayer at 50 psi. Plants were sprayed twice, on successive days; after the second spray had dried, all plants were wounded by sand blasting and then within one minute the plants were inoculated with a bacterial inoculum of Xanthomonas vesicatoria. Three days later, a third spray application of the aqueous formulation of A16886 was made. Readings were made one week and two weeks after the last spray treatment. Controls consisted of groups of plants (1) sand blasted and inoculated; (2) sand blasted only; (3) untreated; and (4) treated with streptomycin (on the same three-day spraying schedule, at a concentration of 100, 200, or 400 parts per million of aqueous solution, using a rate of 75 gallons per acre), sand blasted, and inoculated. The results were as set forth in the following table, in which crop injury is reported on a scale of 0-10, with 0=no injury and 10=dead plants; and control of bacterial spot is reported on a percentage basis.

A further series has as its system tomato plants. Nature of the series: field trial, crop injury. It is filed as in vivo. Conditions: 0=no injury, 10=dead plants. The method, then: as §1
Setting [2] is: in acetonitrile and other organic solvents.

Like-named read-outs stand apart in the source and are kept apart here.

Regarding `COC1(NC(=O)CCCC(N)C(=O)O)C(=O)N2C(C(=O)O)=C(COC(N)=O)CS[C@@H]21` (stereo partly drawn) [A16886I, 7-(5-amino-5-carboxyvaleramido)-3-(carbamoyloxymethyl)-7-methoxy-3-cephem-4-carboxylic acid], the solubility result in the series “solubility” (setting [2]) is reported as “essentially insoluble”; in “solubility” (in lower alkanols), “slightly soluble”; in the series “solubility” (in water), “very soluble”. Besides, the “Disease Rating” value in the series with Pseudomonas solanacearum (Example 7, 10 ppm.) amounted to 2; with Pseudomonas solanacearum (Example 7, 100 ppm.) it was 4. The rating in the series on Pseudomonas solanacearum (Example 8, 100 ppm.) was determined as 4; in the series on Pseudomonas solanacearum (Example 8, 200 ppm.), 4; in the series with Pseudomonas solanacearum (Example 8, 400 ppm.), 4. Besides, in series [1], the “Average Number of Lung Lesions Per Group” value was found to be 0.46.

As for `NC(=O)OCC1=C(C(=O)O)N2C(=O)C(NC(=O)CCCC(N)C(=O)O)[C@H]2SC1` (stereo partly drawn) [A16886II, 7-(5-amino-5-carboxyvaleramido)-3-(carbamoyloxymethyl)-3-cephem-4-carboxylic acid], the values for the solubility result in “solubility” (setting [2]), in “solubility” (in lower alkanols) and in “solubility” (in water) were “essentially insoluble”, “slightly soluble” and “very soluble”, respectively. For the same compound, the “Disease Rating” value in the series on Pseudomonas solanacearum (Example 7, 10 ppm.) is on record as 1; in the series on Pseudomonas solanacearum (Example 7, 100 ppm.) it was 4. Also, the “Average Number of Lung Lesions Per Group” value in series [1] was found to be 0.20.

Regarding `[H]/N=C(/N)N[C@H]1[C@H](O)[C@@H](O)[C@H](O[C@@H]2O[C@@H](C)[C@](O)(C=O)[C@H]2O[C@@H]2O[C@@H](CO)[C@H](O)[C@@H](O)[C@@H]2NC)[C@@H](N/C(N)=N\[H])[C@@H]1O` [Streptomycin], the “Percent Bacterial Spot Control” value in the series on Xanthomonas vesicatoria (100 ppm, First Reading) is 83%; in the series with Xanthomonas vesicatoria (100 ppm, Second Reading), 57%; in the series with Xanthomonas vesicatoria (200 ppm, First Reading) it was 81%; with Xanthomonas vesicatoria (200 ppm, Second Reading) it was 37%; with Xanthomonas vesicatoria (400 ppm, First Reading), 83%; with Xanthomonas vesicatoria (400 ppm, Second Reading), 59%. The “Crop Injury Ratings” value with tomato plants (100 ppm, First Reading) was 0; with tomato plants (100 ppm, Second Reading) it was 0; with tomato plants (200 ppm, First Reading) it was 0; in the series on tomato plants (200 ppm, Second Reading) it was 0; in the series with tomato plants (400 ppm, First Reading) it was 0; with tomato plants (400 ppm, Second Reading) it was 0.

The values above are taken from patent US4173702A, “7-(5-Amino-5-carboxyvaler-amido)-3-(carbamoyloxymethyl)-7-methoxy-3-cep hem-4-carboxylic acid” (Eli Lilly and Company, priority 1970, dated 1979).
